Data as given in publication PMC2964152 (Journal of medicinal chemistry, 2010).
Structures can show the parent of a compound that is named as a salt.

Test system: not listed separately
Experiment: Aqueous solubility, miniaturized shake-flask method with LC-MS/MS
Assay type: physicochemical
Conditions: buffer pH7.0

Compound | aqueous solubility, times greater than SMART-1
COc1cc(C(=O)c2c[nH]c(-c3ccc(N(C)C)cc3)n2)cc(OC)c1OC [5ga, (2-(4-(Dimethylamino)phenyl)-1H-imidazol-4-yl)(3,4,5-trimethoxyphenyl)methanone] | about 50 times

Same assay, conditions: water

Compound | aqueous solubility, times greater than SMART-1 [times]
COc1cc(C(=O)c2c[nH]c(-c3ccc(N(C)C)cc3)n2)cc(OC)c1OC [5ga, (2-(4-(Dimethylamino)phenyl)-1H-imidazol-4-yl)(3,4,5-trimethoxyphenyl)methanone] | ~10

Test system: Bovine brain tubulin
Experiment: In vitro microtubule polymerization assay
Assay type: biochemical
Conditions: 10 μM compound, absorbance at 340 nm, 15 min, 37°C

Compound | inhibition of tubulin polymerization
COc1cc(C(=O)c2c[nH]c(-c3ccc(C)cc3)n2)cc(OC)c1OC [5da, (2-(p-Tolyl)-1H-imidazol-4-yl)(3,4,5-trimethoxyphenyl)methanone] | completely inhibited

Test system: three melanoma cell lines and four human prostate cancer cell lines
Experiment: In vitro growth inhibition, average of all seven cell lines
Assay type: cell-based
Conditions: from average IC50 values

Compound | fold increase in activity compared with 5kb [fold] | fold decrease of activity compared with compound 5da [fold]
O=C(c1ccc(F)cc1)c1c[nH]c(-c2ccc(OCc3ccccc3)cc2)n1 [5jb, (2-(4-(Benzyloxy)phenyl)-1H-imidazol-4-yl)(4-fluorophenyl)methanone] | 440 | –
COc1cc(C(=O)c2c[nH]c(-c3ccc(C(F)(F)F)cc3)n2)cc(OC)c1OC [5la, (2-(4-(Trifluoromethyl)phenyl)-1H-imidazol-4-yl)(3,4,5-trimethoxyphenyl)methanone] | – | 12

Same assay, conditions: read-out: average IC50; average of all seven cell lines, as given in the text

IC50 [nM] | Compound
75 | O=C(c1ccc(F)cc1)c1c[nH]c(-c2ccc(OCc3ccccc3)cc2)n1 [5jb, (2-(4-(Benzyloxy)phenyl)-1H-imidazol-4-yl)(4-fluorophenyl)methanone]
> 10000 | COc1cccc(C(=O)c2c[nH]c(-c3ccccc3)n2)c1 [5ac, (3-Methoxyphenyl)(2-phenyl-1H-imidazol-4-yl)methanone]
> 10000 | O=S(=O)(c1ccccc1)n1ccnc1-c1ccccc1 [3a, 2-Phenyl-1-(phenylsulfonyl)-1H-imidazole]
> 10000 | (4-Fluorophenyl)(2-(2-(trifluoromethyl)phenyl)-1H-imidazol-4-yl)methanone [5ib]
> 10000 | COc1cc(C(=O)c2c[nH]c(-c3cc(OC)c(OC)c(OC)c3)n2)cc(OC)c1OC [5ea, (3,4,5-Trimethoxyphenyl)(2-(3,4,5-trimethoxyphenyl)-1H-imidazol-4-yl)methanone]
> 10000 | COc1ccc(C(=O)n2ccnc2-c2ccccc2)cc1 [5aba, (4-Methoxyphenyl)(2-phenyl-1H-imidazol-1-yl) methanone]
> 10000 | COc1cc(-c2nc(C(=O)c3ccc(F)cc3)c[nH]2)cc(OC)c1OC [5eb, (4-Fluorophenyl)(2-(3,4,5-trimethoxyphenyl)-1H-imidazol-4-yl)methanone]
> 10000 | COc1ccc(C(=O)c2c[nH]c(-c3ccccc3)n2)cc1OC [5ae, (3,4-Dimethoxyphenyl)(2-phenyl-1H-imidazol-4-yl)methanone]
285 | (2-(4-(Dimethylamino)phenyl)-1-(phenylsulfonyl)-1H-imidazol-4-yl)(3, 4, 5-trimethoxyphenyl) methanone [4ga]
193 | COc1cc(C(=O)c2c[nH]c(-c3ccc(C(F)(F)F)cc3)n2)cc(OC)c1OC [5la, (2-(4-(Trifluoromethyl)phenyl)-1H-imidazol-4-yl)(3,4,5-trimethoxyphenyl)methanone]
> 10000 | O=[N+]([O-])c1ccc(-c2nccn2S(=O)(=O)c2ccccc2)cc1 [3x, 2-(4-Nitrophenyl)-1-(phenylsulfonyl)-1H -imidazole]
7300 | COc1cc(C(=O)c2c[nH]c(-c3ccc(OCc4ccccc4)cc3)n2)cc(OC)c1OC [5ja, (2-(4-(Benzyloxy)phenyl)-1H-imidazol-4-yl)(3,4,5-trimethoxyphenyl)methanone]
> 10000 | COc1ccc(C(=O)c2c[nH]c(-c3ccccc3)n2)cc1 [5ab, (4-Methoxyphenyl)(2-phenyl-1 H-imidazol-4-yl)methanone]
> 10000 | O=S(=O)(c1ccccc1)n1ccnc1-c1ccc(OCc2ccccc2)cc1 [3j, 2-(4-(Benzyloxy)phenyl)-1-(phenylsulfonyl)-1H-imidazole]
> 10000 | O=C(c1cccc(F)c1)c1c[nH]c(-c2ccccc2)n1 [5ag, (3-Fluorophenyl)(2-phenyl-1H-imidazol-4-yl)methanone]
> 10000 | COc1cc(C(=O)n2ccnc2-c2ccccc2)cc(OC)c1OC [5aaa, (2-Phenyl-1H-imidazol-1-yl)(3,4,5-trimethoxyphenyl) methanone]
172 | Cc1ccc(-c2nc(C(=O)c3ccc(F)cc3)c[nH]2)cc1 [5db-HCl, (4-Fluorophenyl)(2-(p-tolyl)-1H-imidazol-4-yl)methanone HCl salt]
> 10000 | Cc1ccc(C(=O)c2c[nH]c(-c3ccccc3)n2)cc1 [5ah, (2-Phenyl-1H-imidazol-4-yl)(p-tolyl)methanone]
> 10000 | Cc1cccc(C(=O)c2c[nH]c(-c3ccccc3)n2)c1 [5ai, (2-Phenyl-1H-imidazol-4-yl)(m-tolyl)methanone]

Compound | IC50 [nM]
COc1ccc(-c2nc(C(=O)c3cc(OC)c(OC)c(OC)c3)c[nH]2)cc1OC [5ha, (2-(3,4-Dimethoxyphenyl)-1H-imidazol-4-yl)(3,4,5-trimethoxyphenyl)methanone] | 330
(2-(4-(Benzyloxy)phenyl)-1-(phenylsulfonyl)-1 H-imidazol-4-yl)(4-fluorophenyl) methanone [4jb] | 61
(2-(4-(Dimethylamino)phenyl)-1-(phenylsulfonyl)-1H-imidazol-4-yl)(4-fluorophenyl)methanone [4gb] | 87
COc1cc(C(=O)c2c[nH]c(-c3ccc(N(C)C)cc3)n2)cc(OC)c1OC [5ga, (2-(4-(Dimethylamino)phenyl)-1H-imidazol-4-yl)(3,4,5-trimethoxyphenyl)methanone] | 131
(4-Fluorophenyl)(1-(phenylsulfonyl)-2-(p-tolyl)-1H-imidazol-4-yl) methanone [4db] | 111
(4-Fluorophenyl)(2-(4-methoxyphenyl)-1-(phenylsulfonyl)-1H-imidazol-4-yl) methanone [4cb] | 43
(2-(3, 4-Dimethoxyphenyl)-1-(phenylsulfonyl)-1H-imidazol-4-yl)(3,4,5-trimethoxyphenyl)methanone [4ha] | 268

Test system: not listed separately
Experiment: Body weight during the in vivo efficacy study
Conditions: any of the treatment groups, during the experiment

Compound | weight loss
COc1ccc(-c2nc(C(=O)c3ccc(F)cc3)c[nH]2)cc1 [5cb, (4-Fluorophenyl)(2-(4-methoxyphenyl)-1H-imidazol-4-yl)methanone] | No significant weight loss
CN(C)/N=N/c1[nH]cnc1C(N)=O [DTIC, dacarbazine, reference compound] | No significant weight loss

Test system: MDA-MB-435
Experiment: In vitro growth inhibition, sensitive parent melanoma cell line
Assay type: cell-based, human
Conditions: read-out: IC50 ± SEM MDA-MB-435, n=3

Compound | IC50 [nM]
(4-Fluorophenyl)(2-(4-methoxyphenyl)-1-(phenylsulfonyl)-1H-imidazol-4-yl) methanone [4cb] | 38 ± 3
(2-(4-Chlorophenyl)-1-(phenylsulfonyl)-1H-imidazol-4-yl)(4-fluorophenyl)methanone [4fb] | 50 ± 6
